Results: patent US10660878B2, “Methods of treating dementia and pharmaceutical compositions thereof” (H. Lundbeck A/S, priority 2012, dated 2020)
“Also recorded” adds a separate entry of the source. Like-named read-outs stand apart in the source and are kept apart here.

Tests used:
[1] = target: T1, 5-HT6 receptor (Homo sapiens, UniProt P50406); experiment: Displacement of [^11C]LuPET binding by olanzapine, PET (Part A); settings: one dose of 10 mg, scan 5 hours after dose; across brain regions
T1 sequence (P50406 whole entry): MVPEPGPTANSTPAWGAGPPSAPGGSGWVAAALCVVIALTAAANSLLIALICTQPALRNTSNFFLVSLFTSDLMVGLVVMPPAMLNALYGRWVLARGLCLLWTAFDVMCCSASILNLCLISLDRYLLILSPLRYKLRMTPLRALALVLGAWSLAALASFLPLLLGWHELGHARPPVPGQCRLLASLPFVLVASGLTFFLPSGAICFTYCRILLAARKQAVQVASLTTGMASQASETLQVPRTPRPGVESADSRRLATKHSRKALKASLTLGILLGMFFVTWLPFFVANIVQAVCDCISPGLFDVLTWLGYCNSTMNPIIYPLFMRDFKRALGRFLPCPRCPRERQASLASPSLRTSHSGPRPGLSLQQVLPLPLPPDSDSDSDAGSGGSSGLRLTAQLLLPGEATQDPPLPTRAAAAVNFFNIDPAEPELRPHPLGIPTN
Text: In Part A, baseline scans were repeated on the same day (n=1) or separate days (n=7) ranging from 1 to 18 days apart to test reproducibility of PET outcome variables.
[formula] where superscripts indicate BPND of baseline (B) and post-dose (D), respectively.

[2] = Phase I PK study in the elderly and AD study 12936A pharmacokinetics; type: in vivo, human; settings: for half-life: human, plasma, read-out: elimination half life (converted)
Experimental: In total, the dataset used in the popPK model consisted of 265 patients. The doses administered, single or multiple, were in the range of 9.0-300 mg.

[3] = system: patients with schizophrenia; experiment: Study 12450A, adjunctive treatment to risperidone in schizophrenia; type: in vivo, human; settings: 120 mg/day BID
Experimental: Overall improvement in schizophrenia symptoms was assessed by using the Positive and Negative Syndrome Scale (PANSS) total score.
(§1) The AD study cited in the Background section is referred to in this application as study 12936A. The schizophrenia study cited in the Background section is referred to in this application as study 12450A.

[4] = system: patients with Alzheimer's disease; experiment: Study 12936A, adjunctive treatment to donepezil in Alzheimer's disease; type: in vivo, human; settings: 90 mg daily (3×30 mg) plus 10 mg/day of donepezil
Text: In 2012, it was reported that a randomized, double blind, placebo controlled trial conducted in Europe, Canada and Australia met its primary endpoint in the treatment of AD.
An issue for that dose selection was to ensure that the maximum exposure level fell under the maximum exposure limit which had been established from non-clinical toxicology studies. Accordingly, a fixed dose of three times in the study was introduced.
as §1

[5] = Plasma concentration of Compound I (PK) in PET study Part B; type: in vivo, human; settings: P2 scans, post-dose duration 10-51 hours
Experimental: Dosing schemes include 5 mg (5Q; Part B4) once daily or QD, 30 mg QD (30Q; Part B3), 30 mg b.i.d. (30B; Part B2), and 60 mg b.i.d (60B; Part B1). […] Model 2 was supported over Model 1 in Pu, CN, and vS by Akaike information criterion (AIC; The smaller the AIC value the better the fit) (Akaike 1974) and F-test comparing residual sums of squares (RSS) of the two models (Table 1).

[6] = target: T1, 5-HT6 receptor; experiment: PET 5-HT6 receptor occupancy after multiple oral doses, [^11C]LuPET radioligand (Part B); type: in vivo; parameters: from tissue; host or cells: brain of living healthy male subjects (putamen, caudate nucleus, ventral striatum), in vivo PET
Experimental: (§2) As the radioligand has not previously been dosed to humans it was initially evaluated in the human brain to identify an optimal method for quantification and validate the radioligand as a PET tracer (Part A).
Eight healthy male subjects (Age: 30.6±7.7 years; range: 22-44 years) participated in Part A, and sixteen healthy male subjects (Age: 32.3±7.6 years; range: 21-44 years) participated in Part B of this study.
(§3) PET studies were performed on the GE Advance Tomograph (GE Medical Systems, Waukesha, Wis., USA). Subjects had one venous catheter for the radioligand injection, and one arterial catheter to obtain arterial blood samples for the determination of radioactivity in plasma. Then, subjects were positioned in the scanner with the head restrained with a custom-made thermoplastic mask to reduce the head motion during PET data acquisition. Then, a 10 minute attenuation scan was performed using a rotating ^68Ge source for attenuation correction. Dynamic PET acquisition was then performed in a three-dimensional mode for 90 min following an intravenous bolus injection of [^11C]LuPET. A total of 30 PET frames were obtained (4×15, 4×30, 3×60, 2×120, 5×240, and 12×300 seconds). […] Selected samples taken at 0, 5, 10, 30, 45, 60, and 90 min were analyzed by HPLC for the presence of the radioligand and its radioactive metabolites as described elsewhere (Hilton et al., 2000).
Volumes of interest (VOIs): Cortical VOIs were automatically defined using Freesurfer software and combined into standard regions including: frontal (Fr), temporal (Tp), parietal (Pa), and occipital (Oc) cortices, fusiform gyms (Fs), cingulate (Cg), and insula (In). Subcortical regions were defined with FIRST software (Patenaude et al., 2011) and manually adjusted on individual MRIs. Subcortical regions included putamen (Pu), caudate nucleus (CN), ventral striatum (vS), globus pallidus (GP), thalamus (Th), hippocampus (Hp), and amygdala (Am). VOIs were transferred from MRI to PET spaces following MRI-to-PET coregistration parameters given by SPMS (Ashbumer J, Friston 2003; Macs et al., 1997) to obtain time-activity curves (TACs) of regions. A total of 25 regions per scan were employed for methodological evaluations (Part A) while occupancy calculation was limited to Pu, CN, and vS (Part B).
Derivation of PET outcome variables: Primary PET outcome variables are total distribution volume, VT and binding potential, BPND (=fND·Bavail/KD, where fND refers to the fraction of non-displaceable compartment, Bavail stands for the density of available (unoccupied) 5-HT6 receptors, and KD stands for the dissociation constant; Innis et al., 2007).
A set of standard plasma input methods were employed to identify the optimal method for derivation of regional distribution volume (VT) for [^11C]LuPET including, a one tissue compartmental model (OTCM) with three parameters (K1, and k2′; See Koeppe et al., 1991 for the definitions, and v0, tissue vascular volume), two tissue compartmental models with five parameters (K1, k2, k3, k4, and v0; See Innis et al., 2007 for the definitions), without and with constraining the K1-k2 ratio (non-displaceable distribution volume, VND (Abi-Dargham et al., 1994) to the cerebellum estimate (TTCM-UC and TTCM-C, respectively), and the plasma reference graphical analysis (PRGA; Logan et al., 1990). In TTCM-UC and TTCM-C, BPND was given as the k3-k4 ratio.
In addition, tissue reference methods, namely the multilinear reference tissue method with 2 parameters (MRTM2; Ichise et al., 2002) and reference tissue graphical analysis (RTGA; Logan et al., 1996) were applied.
Akaike information criteria (AIC; Akaike 1974; Burnham and Anderson 2004) was used to examine goodness of fit for compartmental models and for the examination of occupancy-PK relationships using Equation 3. Results

[7] = target: T1, 5-HT6 receptor; experiment: PK/PD Emax model of 5-HT6 occupancy fitted to PET data; type: in vivo; parameters: from tissue; host or cells: brain of living healthy male subjects (putamen, caudate nucleus, ventral striatum), in vivo PET; settings: caudate nucleus region; non-linear mixed effect modelling
Experimental: In total three PET scans were performed per subject, the first at baseline, the second around tmax on last day of dosing and the last in the interval 10-51 hours post dose on the last day of dosing.
In order to allow for estimation of the inter-subject variability in the occupancy, non-linear mixed effect modelling was performed where the inter-subject variability was modelled as an exponential term on EC50.

[8] = Evaluation of [^11C]LuPET as PET tracer in the human brain; type: in vivo
Experimental: as §2
as §3, with “2000). […]” for “2000).”

[9] = Caudate nucleus (CN), PRGA, 3H + P2 pooled
[10] = Caudate nucleus (CN), PRGA, 3H scans
[11] = Caudate nucleus (CN), PRGA, P2 scans
[12] = Caudate nucleus (CN), RTGA, 3H + P2 pooled
[13] = Caudate nucleus (CN), RTGA, 3H scans
[14] = Caudate nucleus (CN), RTGA, P2 scans
[15] = Putamen (Pu), PRGA, 3H + P2 pooled
[16] = Ventral striatum (vS), PRGA, 3H + P2 pooled
[17] = Ventral striatum (vS), PRGA, 3H scans
[18] = Ventral striatum (vS), PRGA, P2 scans

## Cc1cc2c(s1)Nc1ccccc1N=C2N1CCN(C)CC1 [olanzapine]
[1]
  displacement of binding of [^11C]LuPET: about 80%

## Fc1ccc2c(CCNCc3cccc(OCC(F)(F)C(F)F)c3)c[nH]c2c1 [Compound I, N-[2-(6-fluoro-1H-indol-3-yl)ethyl]-3-(2,2,3,3-tetrafluoropropoxy)benzylamine]
[2]; elderly compared to younger subjects
  clearance: reduced
[2]; elderly population
  half-life: ~19 h
[2]; young healthy subjects
  half-life: ~12 h
[3]
  PANSS total score vs placebo: did not offer any treatment advantage over placebo
  overall neurocognitive performance (BACS composite Z-score, PANSS cognitive subscale scores) vs placebo: did not appear to be any treatment advantage over placebo
[4]
  secondary endpoints (global impression, daily living activities) vs donepezil treated patients: positive results
[4]; 278 patients
  cognitive function (ADAS-cog) vs placebo plus donepezil: significantly improved
[5]
  PK range (plasma concentration): 0.54 to 204 ng/mL
[6]; 30 mg BID, at Cmax
  receptor occupancy at 30 mg: > 85%
[6]; 30 mg QD, at Cmax
  receptor occupancy at 30 mg: ~80%
[6]; 60 mg BID, at Cmax
  receptor occupancy at 60 mg: > 90%
[6]; CN and vS by PRGA
  PK values predicted to generate 80% occupancy: about 120 ng/mL
[6]; CN by RTGA
  PK values predicted to generate 80% occupancy: about 100 ng/mL
[6]; [9]
  80% RO (PK predicted to exert 80% occupancy): 51.1 ng/mL
  Omax: 91.3%
[6]; [10]
  80% RO (PK predicted to exert 80% occupancy): 50.1 ng/mL
  Omax: 90.3%
[6]; [11]
  80% RO (PK predicted to exert 80% occupancy): 48.0 ng/mL
  Omax: 93.9%
[6]; [12]
  80% RO (PK predicted to exert 80% occupancy): 108.4 ng/mL
  Omax: 85.7%
[6]; [13]
  80% RO (PK predicted to exert 80% occupancy): 102.8 ng/mL
  Omax: 85.2%
[6]; [14]
  80% RO (PK predicted to exert 80% occupancy): 101.5 ng/mL
  Omax: 87.1%
[6]; Pu by PRGA
  PK values predicted to generate 80% occupancy: about 50 ng/mL
[6]; [15]
  80% RO (PK predicted to exert 80% occupancy): 131.7 ng/mL
  Omax: 83.2%
[6]; Putamen (Pu), PRGA, 3H scans
  80% RO (PK predicted to exert 80% occupancy): 137.8 ng/mL
  Omax: 82.8%
[6]; Putamen (Pu), PRGA, P2 scans
  80% RO (PK predicted to exert 80% occupancy): 116.7 ng/mL
  Omax: 83.8%
[6]; Putamen (Pu), RTGA, 3H + P2 pooled
  Omax: 77.3%
[6]; Putamen (Pu), RTGA, 3H scans
  Omax: 7.5%
[6]; Putamen (Pu), RTGA, P2 scans
  Omax: 76.6%
[6]; [16]
  80% RO (PK predicted to exert 80% occupancy): 121.0 ng/mL
  Omax: 86.0%
[6]; [17]
  80% RO (PK predicted to exert 80% occupancy): 66.5 ng/mL
  Omax: 85.5%
[6]; [18]
  80% RO (PK predicted to exert 80% occupancy): 133.5 ng/mL
  Omax: 89.7%
[6]; Ventral striatum (vS), RTGA, 3H + P2 pooled
  Omax: 76.5%
[6]; Ventral striatum (vS), RTGA, 3H scans
  Omax: 78.2%
[6]; Ventral striatum (vS), RTGA, P2 scans
  Omax: 72.1%
[6]; after multiple dosages, 24 hours post dose vs Cmax
  5-HT6 receptor occupancy 24 hours post dose: only decreased slightly; also recorded: maintained
[6]; oral administration, overall study estimate based on Pu and CN
  Omax: about 90%
[7]
  Emax (maximal occupancy): 91%

## [11CH3]N1CCN(c2cccc3cc(S(=O)(=O)c4ccccc4)cnc23)CC1 [[^11C]LuPET]
[8]; cerebellum (Cb), mean across baseline scans, TTCM-UC
  k2 (brain-to-blood clearance rate constant): 0.076 min⁻¹
[8]; striatum target regions
  distribution volume VT: ~10 mL/mL
